Source: patent US20140051729A1, “COMPOSITIONS AND METHODS FOR TREATING DEGENERATIVE MUSCLE CONDITIONS” (University of Washington, priority 2011, published 2014)

How the values were obtained:
[1] = test system: Dystrophic mutant flies (TubGal4:UAS-Dys^C-RNAi/+); assay: Myofibril Projectin immunohistochemistry in dystrophic flies after oral THI; assay type: in vivo, Drosophila melanogaster; conditions: 3 days once-daily oral THI, myofibrils from 10 day old flies
Experimental: In mice, the genetic reduction of S1P lyase activity can be phenocopied pharmacologically by the delivery of the small molecule 1-[5-[(1R,2S,3R)-1,2,3,4-tetrahydroxybutyl]-1H-imidazol-2-yl]-ethanone (THI), which inhibits the activity of S1P lyase. Dystrophic mutant flies were administered THI to investigate possible THI suppression of the muscle degeneration phenotype.
Flies were dipped in 95% EtOH and then dissected in 1×PBS (pH 7.4). Heads and abdomens were removed, and the thoraxes opened. Samples were stained using a modified ovary staining protocol 3. Samples were then fixed in 5% paraformaldehyde (Electron Microscopy Sciences) for 1 hour, rinsed in PBT (PBS/0.2% Triton X-100 v/v) 4 times, and then blocked for 1 hour in PBTB (PBT, 0.4% BSA w/v, 5% Normal Goat Serum v/v) at room temperature. Samples were stained in primary antibody pre-diluted in PBTB (Phalloidin-Alexa-Fluor 568, Invitrogen [mouse, 1:200]; Projectin (Mac150), Babraham Institute [rat, 1:50]) overnight at 4° C., rinsed in PBT 4 times at room temperature (RT), and then stained with secondary antibody pre-diluted in PBTB (Alexa Fluor 488 [mouse, 1:500]) overnight at 4° C. […] For each genotype, 4-5 flies were analyzed, and 6-7 muscles per fly were analyzed. […]

[2] = test system: dystrophic flies (w; +/+; Dys^det1/Dys^det1); assay: Myofibril analysis of muscle wasting in dystrophic flies fed S1P promoting agents; assay type: in vivo, Drosophila; conditions: 217 μM in feed, three feeding cycles, 10-day old flies, three days after last feeding
Experimental: The effect of THI, a derivative of THI ((E)-1-(4-((1R,2S,3R)-1,2,3,4-tetrahydroxybutyl)-1H-imidazol-2-yl)-ethanone oxime) (“THI-oxime”), and a sphingosine analog (FTY720) on muscle wasting in dystrophic Drosopila flies was observed. Before feeding, 4 day old dystrophic flies (genotype: w; +/+; Dys^det1/Dys^det1) were placed in empty vials and starved for 6 hours. The flies were then provided access to one of a solution of 0.05 mg/mL (217 μM) 2-Acetyl-4(5)-tetrahydroxybutyl Imidazole (THI), or 217 μM FTY720, or 217 μM THI-oxime, in 5% light corn syrup in water for 16-18 hrs. After feeding, the flies were placed in new yeasted vials for 6-7 hrs. Flies were then transferred to empty vials with access to a 217 μM solution of THI, FTY720 or THI-oxime in a 5% light corn syrup in water for 16-18 hrs. This feeding cycle was repeated for a third time. After feeding for three cycles, the flies were placed in new yeasted vials. The 7-day old flies that had been administered the THI-oxime were analyzed immediately after the last feeding. The flies that has been administered THI and FTY720 were analyzed as 10-day old flies, three days after the last feeding with THI and FTY720.
Myofibril immunochemistry analysis was performed as disclosed herein. For each treatment group, 5 flies were analyzed, and 3 muscles per fly and 2 myofibrils per muscle were analyzed. Two tailed Student's t test was used to evaluate significance.
Flies were dipped in 95% EtOH and then dissected in 1×PBS (pH 7.4). Heads and abdomens were removed, and the thoraxes opened. Samples were stained using a modified ovary staining protocol 3. Samples were then fixed in 5% paraformaldehyde (Electron Microscopy Sciences) for 1 hour, rinsed in PBT (PBS/0.2% Triton X-100 v/v) 4 times, and then blocked for 1 hour in PBTB (PBT, 0.4% BSA w/v, 5% Normal Goat Serum v/v) at room temperature. […] For each genotype, 4-5 flies were analyzed, and 6-7 muscles per fly were analyzed.

[3] = test system: S1P level; assay: S1P levels in tissues of CTX injured mdx mice after IP THI; assay type: in vivo, mouse; conditions: 5-month-old mdx males, IP THI 5 times during 3 days, day 4 post CTX, vs vehicle
Experimental: (a) Experimental schematic of THI (0.075 μg/day) and PBS (vehicle) treated mdx mice injected intraperitoneally (IP) twice daily for the first 72 hours following cardiotoxin (CTX) injury. Muscles, spleen or plasma from 5MO (n=6) mdx males were harvested for S1P and creatin kinase (CK) analysis at day 4 post CTX injury. Muscles from aged mdx mice (n=7 THI treated: 3 11MO females, 4 16MO males. n=6 vehicle: 3 11MO females, 3 16MO males) were harvested for histopathology analysis 18 days post CTX injury. […] (d) Quantification of Picrosirius Red staining indicates reduced fibrosis following injury in both Tibialis Anterior (TA) and Quadriceps (Quads) muscles in mice treated with THI. […] Scale bars=50 μm. (f) Oil Red-O staining depicts fat deposits (arrows) over the entire cross-sectional area of THI treated and control injured TAs. […] Error bars represent SEM.
The effects of THI in the dystrophic mdx mouse model were studied. […] THI was administered intraperitoneally (IP) to three groups of mdx mice. Right tibialis anterior (TA) and quadriceps muscles were uninjured, while left counterparts were injured using CTX, a well characterized model of acute injury where initial muscle destruction is followed by a rapid myogenic response. […] The effects of THI administration on the plasma creatine kinase (CK) activity level was also measured.

`CC(=O)c1ncc([C@@H](O)[C@H](O)[C@H](O)CO)[nH]1` [THI, 1-[5-[(1R,2S,3R)-1,2,3,4-tetrahydroxybutyl]-1H-imidazol-2-yl]-ethanone] was tested, and the “suppression of muscle wasting (myofibrils)” value [1] was “significant suppression of muscle wasting”, the wild-type myofibrils [2] was “approximately 67%” and the “S1P level in CTX injured quadriceps” value [3] was “significantly increased”. The “S1P level in spleen tissue” value [3] was “significantly increased”.
